The text below walks through data of patent US12414960B2, “Analogues of oleuropein and oleacein and uses thereof” (Attica Sciences Ltd., priority 2020, dated 2025).

One data set concerns p70 S6 (T389). As to the kind of experiment: ELISA of p70 S6 (T389) in PANC-1 cells. It counts as cell-based, human. The note with it: rIGF1, 5 μM, 24 hours. Here is the method:
ELISA assay was used to evaluate the effect of GS compounds on protein activity levels in PANC-1 cancer cells. PANC-1 cells were serum-starved overnight and then treated with rIGF1 (100 ng/mL) for 24 hours, with or without GS27 (5 μM). The levels of the following proteins were evaluated by ELISA assay: a) p70 S6 (T389) (cat no. 54164C, Cell Signaling); b) pAKT (S473), (cat no. 80895, Cell Signaling); c) pACLY (S455), (cat no. okag1672, Avivasysbio); d) pAMPK (T172) (cat no. 7959C, Cell Signaling) and e) p65/NFKB (S536), (cat no. 7173, Cell Signaling).
PANC-1 is a human pancreatic ductal adenocarcinoma cell line derived from the carcinoma of a person.
The molecular mechanism of action of GS27, a compound that has exerted potent anti-cancer activity in different cancer cell lines including pancreatic cancer cells, was investigated. Oleacein has been implicated to have anti-inflammatory and metabolic effects, thus the potential effects of GS27 in different metabolic and inflammatory pathways were evaluated. Specifically, the protein levels of p70 S6 (T389), pAKT (S473), pACLY (S455), pAMPK (T172) and p65/NFKB (S536) were evaluated by ELISA assay in PANC-1 pancreatic cancer cells treated with 5 μM GS27. GS27 reduced p70 S6 and AKT phosphorylation levels, while it increased AMPK phosphorylation.
A general note: ELISA stands for enzyme-linked immunosorbent assay.

In another data set the test system is PANC-1 cancer cells. The data set can be described thus: Cell Titer-Glo cell viability assay, PANC-1. It counts as cell-based, human. The note with it: 5 μM, 24 hours; compared with SB204990 and BMS303141. The source says: The CellTiter-Glo® Luminescent Cell Viability Assay (Promega Corporation; Madison, WI) is a homogeneous method of determining the number of viable cells in culture based on quantitation of the ATP present, an indicator of metabolically active cells. The homogeneous assay procedure involves adding the single reagent (CellTiter-Glo® Reagent) directly to cells cultured in serum-supplemented medium. The homogeneous “add-mix-measure” format results in cell lysis and generation of a luminescent signal proportional to the amount of ATP present. The amount of ATP is directly proportional to the number of cells present in culture.
Cancer cells (3,000 cells/well) were harvested in a 96-well plate. Then, the cancer cells were treated with GS compounds and incubated for 24 hours. The MT Cell Viability Substrate, NanoLuc® Enzyme and cell culture medium was equilibrated to 37° C. The 2× RealTime-Glo™ reagent was prepared by diluting the MT Cell Viability Substrate and NanoLuc® Enzyme in 37° C. cell culture medium to a 2× concentration for each reagent. […] The cells were kept for ˜20 minutes in the cell culture incubator and then luminescence was measured by using a plate-reading luminometer. […]

Another data set has as its system HepG2 liver cancer tumor. As to the kind of experiment: HepG2 xenograft mouse model. In kind it is in vivo, nu/nu mice. Particulars: 20 mg/kg i.p. every 5 days, until 20 days post-treatment. The protocol:
The effect of GS27 on liver cancer tumor growth in mice was evaluated in a HepG2 xenograft mouse model. HepG2 is a human liver cancer cell line, obtained from ATCC (cat. No HB-8065). Since hepatocellular carcinoma is often treated with the chemotherapeutic agent doxorubicin and embolization, results were compared to those obtained with doxorubicin.
Xenograft tumors were generated by injecting HepG2 liver cancer cells (2.5×10^6) into the right flank of female nu/nu mice (Charles River Laboratories). All mice developed tumors in 10 days with size of approximately 100 mm3. For each experiment, mice were randomly distributed into equal groups (4 mice per group) that were untreated, or treated by intraperitoneal injections every 5 days with 20 mg/kg GS27 or doxorubicin. Tumor volume (average, SD) was evaluated until 20 days post-treatment.

The subject of data set [1] is AsPC-1 pancreatic cancer tumor. As to the kind of experiment: AsPC-1 xenograft mouse model. Particulars: 100 mg/kg i.p. daily for 5 days. It counts as in vivo, NOD/SCID mice. The protocol:
The effect of GS27 on pancreatic cancer tumor growth in mice was evaluated in a AsPC-1 xenograft mouse model.
Xenograft tumors were generated by injecting AsPC-1 pancreatic cancer cells (0.5×10^6) into the right flank of male NOD/SCID mice (n=5/group). All mice developed tumors in 10 days with size of approximately 100 mm3. For each experiment, mice were randomly distributed into equal groups (5 mice per group) that were untreated or treated by intraperitoneal injections daily for 5 days with 100 mg/kg GS27. Tumor volume (average, SD) and the weight of the animals were evaluated until 24 days post-treatment.

The test system of data set [2] is AsPC-1 pancreatic cancer tumor cells. The data set can be described thus: Nile red lipid content of AsPC-1 xenograft tumors. In kind it is in vivo, mice. Particulars: 100 mg/kg i.p., tumors collected 24 days post-treatment. The protocol: Tumors derived from the mice treated by intraperitoneal injection with GS27 at 100 mg/kg were collected 24 days post-treatment. The tumors were evaluated for their lipid content using the dye nile red as a fluorescent vital stain for the detection of intracellular lipid droplets by fluorescence microscopy and flow cytofluorometry, as described previously (Greenspan, Peter et al., J Cell Biol, 1985, 100(3):965-973). […] Quantification of the data is shown in the bar graph.

Consider `C/C=C(/C=O)[C@@H](CC=O)CC(=O)SCCc1ccccc1` [GS27, S-phenethyl (3S,4E)-4-formyl-3-(2-oxoethyl)hex-4-enethioate], for which the “p70 S6 phosphorylation levels” value in the data set with p70 S6 (T389) is “reduced”. In addition, the “suppression of PANC-1 cancer cell growth” value with PANC-1 cancer cells was “best effect”. The “reduction in the tumor size, HepG2 liver cancer” value with HepG2 liver cancer tumor was 80%. Besides, the “weight of the mice” value in data set [1] is “did not affect”. In addition, the “inhibition of AsPC-1 pancreatic cancer tumor growth” value in data set [1] (until 24 days post-treatment) is recorded as 34%. In data set [2], the “reduction in the lipid content of AsPC-1 tumor cells” value stood at 55%.
